How the values were obtained:
[1] = target: Casein kinase I isoform delta (Homo sapiens, UniProt P48730); experiment: CSNK1D-Inhibitory Activity Assay
Procedure: For the assay 50 nl of a 100-fold concentrated solution of the test compound in DMSO was pipetted into a white 1536-well microtiter plate (Greiner Bio-One, Frickenhausen, Germany), 2 μL of a solution of CSNK1D in aqueous assay buffer [50 mM HEPES pH 7.5, 10% (v/v) glycerol, 10 mM MgCl2, 50 mM NaCl, 1 mM dithiothreitol, 0.01% (w/v) bovine serum albumin, 0.01% (v/v) Triton X-100] were added and the mixture was incubated for 15 min at 22° C. to allow pre-binding of the test compounds to the enzyme before the start of the kinase reaction. Then the kinase reaction was started by the addition of 3 μL of a solution of ATP (1.67 μM=>final conc. in the 5 μL assay volume is 1 μM) and peptide substrate (50 μM=>final conc. in the 5 μL assay volume is 30 μM) in assay buffer and the resulting mixture was incubated for a reaction time of 30 min at 22° C. The concentration of CSNK1D was adjusted depending of the activity of the enzyme lot and was chosen appropriate to have the assay in the linear range, a typical concentration is about 0.5 ng/μL. […] Subsequently 2.5 μL of the “kinase detection reagent” (1.2 fold more concentrated than recommended by the producer) were added, the resulting mixture was incubated at 22° C. for 1 h and then the luminescence measured with a suitable measurement instrument (e.g. Viewlux™ from Perkin-Elmer). […]

[2] = target: T1, Casein kinase I isoform alpha (Homo sapiens, UniProt P48729); experiment: CSNK1A1-Inhibitory Activity Assay (Low ATP)
Procedure: For the assay 50 nl of a 100-fold concentrated solution of the test compound in DMSO was pipetted into a white 1536-well microtiter plate (Greiner Bio-One, Frickenhausen, Germany), 2 μL of a solution of CSNK1A1 in aqueous assay buffer [50 mM HEPES pH 7.5, 10% (v/v) glycerol, 10 mM MgCl2, 50 mM NaCl, 1 mM dithiothreitol, 0.01% (w/v) bovine serum albumin, 0.01% (v/v) Triton X-100] were added and the mixture was incubated for 15 min at 22° C. to allow pre-binding of the test compounds to the enzyme before the start of the kinase reaction. Then the kinase reaction was started by the addition of 3 μL of a solution of ATP (1.67 μM=>final conc. in the 5 μL assay volume is 1 μM) and peptide substrate (50 μM=>final conc. in the 5 μL assay volume is 30 μM) in assay buffer and the resulting mixture was incubated for a reaction time of 30 min at 22° C. The concentration of CSNK1A1 was adjusted depending of the activity of the enzyme lot and was chosen appropriate to have the assay in the linear range, a typical concentrations are about 0.0375 ng/μL. […] Subsequently 2.5 μL of the “kinase detection reagent” (1.2 fold more concentrated than recommended by the producer) were added, the resulting mixture was incubated at 22° C. for 1 h and then the luminescence measured with a suitable measurement instrument (e.g. Viewlux™ from Perkin-Elmer). […]

[3] = target: T1, Casein kinase I isoform alpha; experiment: CSNK1A1-Inhibitory Activity Assay (High ATP)
Procedure: For the assay 50 nl of a 100 fold concentrated solution of the test compound in DMSO was pipetted into a white low volume 384-well microtiter plate (Greiner Bio-One, Frickenhausen, Germany), 2 μL of a solution of CSNK1A1 in aqueous assay buffer [50 mM HEPES pH 7.5, 10% (v/v) glycerol, 10 mM MgCl2, 50 mM NaCl, 1 mM dithiothreitol, 0.01% (w/v) bovine serum albumin, 0.01% (v/v) Triton X-100] were added and the mixture was incubated for 15 min at 22° C. to allow pre-binding of the test compounds to the enzyme before the start of the kinase reaction. Then the kinase reaction was started by the addition of 3 μL of a solution of ATP (1.67 mM=>final conc. in the 5 μL assay volume is 1 mM) and peptide substrate (167 μM=>final conc. in the 5 μL assay volume is 100 μM) in assay buffer and the resulting mixture was incubated for a reaction time of 30 min at 22° C. The concentration of CSNK1A1 was adjusted depending of the activity of the enzyme lot and was chosen appropriate to have the assay in the linear range, a typical concentration is about 0.4 ng/μL. […] Subsequently 2.5 μL of the “kinase detection reagent” (1.2 fold more concentrated than recommended by the producer) were added, the resulting mixture was incubated at 22° C. for 1 h and then the luminescence measured with a suitable measurement instrument (e.g. Viewlux™ from Perkin-Elmer). […]

[4] = target: Casein kinase I isoform gamma-3 (Homo sapiens, UniProt Q9Y6M4); experiment: CSNK1G3-Inhibitory Activity Assay
Procedure: For the assay 50 nl of a 100 fold concentrated solution of the test compound in DMSO was pipetted into a white 1536-well microtiter plate (Greiner Bio-One, Frickenhausen, Germany), 2 μL of a solution of CSNK1G3 in aqueous assay buffer [50 mM HEPES pH 7.5, 10% (v/v) glycerol, 10 mM MgCl2, 50 mM NaCl, 1 mM dithiothreitol, 0.01% (w/v) bovine serum albumin, 0.01% (v/v) Triton X-100] were added and the mixture was incubated for 15 min at 22° C. to allow pre-binding of the test compounds to the enzyme before the start of the kinase reaction. Then the kinase reaction was started by the addition of 3 μL of a solution of ATP ([…]) and peptide substrate (50 μM=>final conc. in the 5 μL assay volume is 30 μM) in assay buffer and the resulting mixture was incubated for a reaction time of 30 min at 22° C. The concentration of CSNK1G3 was adjusted depending of the activity of the enzyme lot and was chosen appropriate to have the assay in the linear range, a typical concentration is about 0.06 ng/μL. […] Subsequently 2.5 μL of the “kinase detection reagent” (1.2 fold more concentrated than recommended by the producer) were added, the resulting mixture was incubated at 22° C. for 1 h and then the luminescence measured with a suitable measurement instrument (e.g. Viewlux™ from Perkin-Elmer). […]

T1 sequence (P48729 whole entry, canonical isoform): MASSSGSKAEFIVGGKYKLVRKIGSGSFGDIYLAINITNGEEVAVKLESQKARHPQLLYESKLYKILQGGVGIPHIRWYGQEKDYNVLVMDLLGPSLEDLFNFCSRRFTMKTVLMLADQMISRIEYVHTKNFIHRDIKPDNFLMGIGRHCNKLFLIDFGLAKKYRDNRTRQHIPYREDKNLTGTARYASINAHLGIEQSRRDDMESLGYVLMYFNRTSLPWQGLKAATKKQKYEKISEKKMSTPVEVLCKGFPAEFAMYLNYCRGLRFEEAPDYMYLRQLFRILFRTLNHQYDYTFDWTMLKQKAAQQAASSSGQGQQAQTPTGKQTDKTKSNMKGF
Sequence of Casein kinase I isoform gamma-3 (Q9Y6M4 whole entry, canonical isoform): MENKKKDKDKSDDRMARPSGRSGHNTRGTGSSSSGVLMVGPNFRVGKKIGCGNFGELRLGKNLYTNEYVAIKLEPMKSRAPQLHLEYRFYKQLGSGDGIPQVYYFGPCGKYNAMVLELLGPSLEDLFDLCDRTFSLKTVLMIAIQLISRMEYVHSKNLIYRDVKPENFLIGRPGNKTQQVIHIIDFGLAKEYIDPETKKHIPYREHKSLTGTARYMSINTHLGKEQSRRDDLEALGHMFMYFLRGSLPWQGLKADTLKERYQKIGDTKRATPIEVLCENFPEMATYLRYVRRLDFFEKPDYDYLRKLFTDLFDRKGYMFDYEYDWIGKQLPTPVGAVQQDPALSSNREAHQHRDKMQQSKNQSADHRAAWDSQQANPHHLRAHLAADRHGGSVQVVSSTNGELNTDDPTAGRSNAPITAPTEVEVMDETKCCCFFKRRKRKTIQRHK
Sequence of Casein kinase I isoform delta (P48730 whole entry, canonical isoform): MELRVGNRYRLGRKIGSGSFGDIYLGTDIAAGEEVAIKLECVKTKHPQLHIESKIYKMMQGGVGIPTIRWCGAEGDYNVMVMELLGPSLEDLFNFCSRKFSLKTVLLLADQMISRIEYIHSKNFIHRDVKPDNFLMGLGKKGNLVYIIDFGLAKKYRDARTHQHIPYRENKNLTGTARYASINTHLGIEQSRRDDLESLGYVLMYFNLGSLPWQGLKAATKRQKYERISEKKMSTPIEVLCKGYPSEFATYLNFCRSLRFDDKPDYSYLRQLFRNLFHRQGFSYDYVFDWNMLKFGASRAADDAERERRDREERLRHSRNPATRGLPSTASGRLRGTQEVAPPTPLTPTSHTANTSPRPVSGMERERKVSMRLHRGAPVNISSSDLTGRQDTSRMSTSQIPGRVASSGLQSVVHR

IC50 [1]: 5.22 nM | IC50 [2]: 1.82 nM | IC50 [3]: 47 nM | IC50 [4]: 50.3 nM
Compound: O=C(Cc1cnco1)Nc1cc(-c2[nH]c3cccnc3c2-c2ccccn2)ccn1 [US20250188075, Example 4]

Source: BindingDB's records for patent US20250188075 (The Broad Institute, 2025)
